Measured values published in PMC4700268 (Frontiers in Pharmacology, 2016).
Values joined by “and” are separate entries in the source; they are usually repeats but may differ in a detail not shown here. Equal entries are not always repeated.

Columns and labels:
[1] = Urinary excretion of ETV and estimated concentration in final urine; type: in vivo; conditions: 1 mg dose, 24 h-urinary volume of 1 L
[2] = biological target: T1, hCNT3 (Homo sapiens, UniProt Q9HAS3); test: [3H]ETV uptake in hCNT3 transfected cells; conditions: 5 min, 37°C
T1 sequence (Q9HAS3 1-691): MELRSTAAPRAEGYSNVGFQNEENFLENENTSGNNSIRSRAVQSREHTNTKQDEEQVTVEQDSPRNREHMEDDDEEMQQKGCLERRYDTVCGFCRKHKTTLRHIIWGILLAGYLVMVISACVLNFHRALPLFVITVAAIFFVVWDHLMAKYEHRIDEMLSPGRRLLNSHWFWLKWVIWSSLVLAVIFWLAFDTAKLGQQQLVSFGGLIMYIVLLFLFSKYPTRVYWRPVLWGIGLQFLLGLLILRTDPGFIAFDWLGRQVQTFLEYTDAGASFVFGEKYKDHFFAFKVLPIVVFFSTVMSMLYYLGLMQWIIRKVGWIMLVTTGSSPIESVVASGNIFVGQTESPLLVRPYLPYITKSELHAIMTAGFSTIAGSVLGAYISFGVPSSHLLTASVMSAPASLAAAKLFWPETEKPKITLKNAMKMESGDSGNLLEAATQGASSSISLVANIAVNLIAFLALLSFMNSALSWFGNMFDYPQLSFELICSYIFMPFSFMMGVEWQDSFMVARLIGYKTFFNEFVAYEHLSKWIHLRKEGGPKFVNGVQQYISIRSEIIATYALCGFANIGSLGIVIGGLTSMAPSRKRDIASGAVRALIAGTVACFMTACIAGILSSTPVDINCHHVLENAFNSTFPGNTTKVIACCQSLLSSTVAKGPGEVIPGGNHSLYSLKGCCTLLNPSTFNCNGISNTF

[3] = biological target: T2, hOCT2 (Homo sapiens, UniProt O15244); test: Inhibition of [3H]MPP+ uptake in hOCT2 transfected MDCK II cells; type: in vitro ADME; conditions: 1 μM [3H]MPP+, ETV 0–2000 μM, 2 min
T2 construct: host or cells: MDCK II cells, transient transfection
T2 sequence (O15244 1-555): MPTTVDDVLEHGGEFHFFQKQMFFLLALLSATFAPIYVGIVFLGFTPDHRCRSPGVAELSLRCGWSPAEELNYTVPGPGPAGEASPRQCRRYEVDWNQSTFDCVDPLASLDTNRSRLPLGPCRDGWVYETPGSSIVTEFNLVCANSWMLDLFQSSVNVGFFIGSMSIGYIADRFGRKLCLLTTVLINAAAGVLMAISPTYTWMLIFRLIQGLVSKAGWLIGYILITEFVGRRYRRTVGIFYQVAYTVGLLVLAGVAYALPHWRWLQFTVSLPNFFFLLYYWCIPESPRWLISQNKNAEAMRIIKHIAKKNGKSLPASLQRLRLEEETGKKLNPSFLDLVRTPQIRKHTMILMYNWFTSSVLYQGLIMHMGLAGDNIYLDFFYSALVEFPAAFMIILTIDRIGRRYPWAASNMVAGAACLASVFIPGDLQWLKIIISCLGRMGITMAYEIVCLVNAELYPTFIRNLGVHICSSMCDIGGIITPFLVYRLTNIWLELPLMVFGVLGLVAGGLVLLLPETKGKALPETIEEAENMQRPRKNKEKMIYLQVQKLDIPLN
Procedure: Inhibitory transport assays were carried out in 24-well plates as described previously ([Mandikova et al., 2013]). Transport assays in HeLa cells transiently transfected with the hOAT1 expression construct were performed 48 h after transfection. Transport assays in MDCK II cells transiently transfected with hOCT2, hCNT2 or hCNT3 were performed 24 h after transfection. The cultivation medium was removed and the cells were washed with transport solution and preincubated for 10 min at 37°C. The standard radiolabeled substrate or tested radioactive antiviral substance dissolved in transport solution was added to the cells and incubated for 2 min. […] After the designated time period, the incubation was stopped by washing the cells twice with ice-cold solution containing 137 mM NaCl and 10 mM HEPES, pH 7.4. The cells were disintegrated with 0.1 mL of Triton X 0.5% in 100 mM NaOH for 1 h. […] IC50 values were calculated using non-linear regression analysis using GraphPad Prism software (version 6).

[4] = tested on: HeLa cells transiently transfected with hOAT1
Procedure: The Hela cells were plated in a 96-well plate and transfected with hOAT1 as described above. […] The controls were prepared simultaneously. After 24 h of incubation, the reagent from the kit CellTiter 96 AQueous One Solution Cell Proliferation Assay (CellTiter 96, PROMEGA, USA) was added. After 1.5 h of incubation at 37°C the absorbance was recorded at 490 nm.

[5] = tested on: MDCK II cells transiently transfected with hCNT3; test: MTS cell viability assay in hCNT3 transfected MDCK II cells; type: cell-based, canine; conditions: 24 h, 250–1000 μM, hCNT3 vs empty vector MDCK II cells
Procedure: The controls were prepared simultaneously.

[6] = biological target: T1, hCNT3; test: Inhibition of [3H]uridine uptake in hCNT3 transfected MDCK II cells; type: in vitro ADME; design: host or cells: MDCK II cells, transient transfection; conditions: 1 μM [3H]uridine, MDCK II cells transiently transfected with hCNT3, 2 min, 37°C; read-out: IC50, inhibition of hCNT3 mediated transport
Procedure: Inhibitory transport assays were carried out in 24-well plates as described previously ([Mandikova et al., 2013]). Transport assays in HeLa cells transiently transfected with the hOAT1 expression construct were performed 48 h after transfection. Transport assays in MDCK II cells transiently transfected with hOCT2, hCNT2 or hCNT3 were performed 24 h after transfection. The cultivation medium was removed and the cells were washed with transport solution and preincubated for 10 min at 37°C. The standard radiolabeled substrate or tested radioactive antiviral substance dissolved in transport solution was added to the cells and incubated for 2 min. [^3H]PAH (1 μM) was used as a prototypical substrate for OATs, [^3H]MPP^+ (1 μM) for OCTs and [^3H]uridine (1 μM) for CNTs. […] After the designated time period, the incubation was stopped by washing the cells twice with ice-cold solution containing 137 mM NaCl and 10 mM HEPES, pH 7.4. The cells were disintegrated with 0.1 mL of Triton X 0.5% in 100 mM NaOH for 1 h.
IC50 values were calculated using non-linear regression analysis using GraphPad Prism software (version 6).

In the case of `C=C1[C@H](CO)[C@@H](O)C[C@@H]1n1cnc2c(=O)[nH]c(N)nc21` [ETV, Entecavir], the “Estimated concentration in the final urine” value [1] is reported as “approximately 700 μg/L and ~2.5 μM”, the “Vmax of [3H]ETV uptake by hCNT3” value [2] is reported as 45.84 nmol/mg protein/5 min and the “Inhibitory interaction with hOCT2” value [3] is reported as “No interaction”. For the same compound, the “Effect of hOAT1 expression on cytotoxicity (cell viability)” value [4] was “no significant effect on cell viability”, the “Effect of hCNT3 expression on cytotoxicity” value [5] was “did not prove any significant increase in cytotoxicity” and the IC50 [6] was 278 µM.
